# Reference: patent US20230322822A1, “ARYL PHOSPHOROUS OXIDE COMPOUNDS AND USE THEREOF” (Chengdu Di'ao Jiuhong Pharmaceutical Factory, priority 2020, published 2023)
# Assays:
# NCI-H3122 cells = test: In vivo pharmacodynamic study, subcutaneously implanted tumor NCI-H3122 (two-sided model); set-up: species or system BALB/c nude mouse
# Description: (§1) Passages were treated twice a week. When the cell number reached requirement, the cells were collected, counted and inoculated.
# (§2) Administration mode and frequency: oral gavage was carried out with an administration volume of 10 mL/kg, and the model group was administered with the same volume of solvent. The administration was once per day and continuously carried out for 16 days.
# (§3) General conditions such as spirit, activity, food intake and the like of the mice were observed every day, and the weight was measured thrice every week; the short diameter (a) and the long diameter (b) of each mouse tumor were measured thrice a week with a vernier caliper, and the tumor volume was calculated according to the formula (a^2×b)/2. The Relative Tumor Volume (RTV) was calculated from the measured tumor volume, wherein RTV=Vt/V0, wherein V0 was the tumor volume at random grouping (i.e., d0) and Vt was the tumor volume at each measurement (i.e., dn). The relative tumor proliferation rate of the evaluation index of the anti-tumor activity was calculated according to the following formula: relative tumor proliferation rate T/C (%): […]
# (§4) Note: TRTV: treatment group RTV; CRTV model control group RTV.
# [1] = Single administration toxicity test, orally intragastric administration to SD rats; format: in vivo; conditions: for Mortality Female: 5 female rats; for Mortality Female / Mortality Male / Mortality/total number of animals: day 15; for Mortality Male: 5 male rats
# Description: 8-week-old SD rats, 10 per group, male and female half, were purchased from Beijing SiPeiFu. The rats were tested after 3 days of acclimatization in this laboratory. The oral administration was performed by intragastric administration with an administration volume of 10 mL/kg. The rats were fasted and not forbidden to drink water for 17 hours before administration. The rats in the control group were given an equal volume of solvent via oral gavage. The feeding was resumed about 2 hours after the end of the administration.
# Observations were made twice daily after the administration. The day of first administration was defined as day 1 of the test. The test was carried out for 14 consecutive days, and ended in day 15.
# [2] = system: NCI-H1975 EGFR DTC(C797S/T790M/Del19) cells; test: In vivo pharmacodynamic study, subcutaneously implanted tumor NCI-H1975 EGFR DTC(C797S/T790M/Del19) (two-sided model); set-up: species or system BALB/c nude mouse
# Description: as §1, §2, §3, §4
# [3] = system: BaF3 EGFR-DTC(C797S/T790M/Del19) cells; test: In-vivo pharmacodynamic study, transplanted tumor model of BaF3 EGFR-DTC(C797S/T790M/Del19) cells in nude mice; set-up: species or system BALB/c nude mice
# Description: The models used in this test were subcutaneous transplanted tumor models of engineered BaF3 EGFR-DTC(C797S/T790M/Del19) cells in BALB/c nude mice. The engineered BaF3 cells were cultured in vitro suspension. […] Passages were treated twice a week. When the cell number reached requirement, the cells were collected, counted and inoculated. 0.2 mL (10^6) cells (added with matrigel, 1:1 by volume) were subcutaneously inoculated in the right back of each mouse, and divided into groups for administration with 6 mice per group when the mean tumor volume reached 109 mm^3.
# Administration mode and frequency: Oral gavage was carried out with an administration volume of 10 mL/kg, and the model group was administered with the same volume of solvent. The administration was once per day and continuously carried out for 14 days.
# as §3
# (Note: TRTV: treatment group RTV; CRTV: model control group RTV. According to the therapeutic effect evaluation standard in the Technical Guidelines for Non-clinical Research of Cytotoxic Anti-tumor Drugs Issued by National Medical Products Administration of China, the value (T/C %≤40%) was effective).
# [4] = 20 mg/kg oral gavage once per day
# [5] = 40 mg/kg oral gavage once per day
# [6] = 25 mg/kg oral gavage once per day
# [7] = 50 mg/kg oral gavage once per day
compound,measurement,setting,value
COc1cc(N2CCC(N3CCN(C)CC3)CC2)c(C)cc1Nc1ncc(Br)c(Nc2ccc(C)cc2P(C)(C)=O)n1 [Compound 2],NCI-H3122 Tumor volume Day 0,NCI-H3122 cells; [4],116 mm^3
same,NCI-H3122 T/C Day 2,NCI-H3122 cells; [4],81.79%
same,NCI-H3122 Tumor volume Day 2,NCI-H3122 cells; [4],115 mm^3
same,NCI-H3122 T/C Day 4,NCI-H3122 cells; [4],49.46%
same,NCI-H3122 Tumor volume Day 4,NCI-H3122 cells; [4],92 mm^3
same,NCI-H3122 T/C Day 6,NCI-H3122 cells; [4],34.18%
same,NCI-H3122 Tumor volume Day 6,NCI-H3122 cells; [4],84 mm^3
same,NCI-H3122 T/C Day 9,NCI-H3122 cells; [4],19.71%
same,NCI-H3122 Tumor volume Day 9,NCI-H3122 cells; [4],74 mm^3
same,NCI-H3122 T/C Day 11,NCI-H3122 cells; [4],13.58%
same,NCI-H3122 Tumor volume Day 11,NCI-H3122 cells; [4],63 mm^3
same,NCI-H3122 T/C Day 13,NCI-H3122 cells; [4],10.25%
same,NCI-H3122 Tumor volume Day 13,NCI-H3122 cells; [4],58 mm^3
same,NCI-H3122 T/C Day 16,NCI-H3122 cells; [4],8.16%
same,NCI-H3122 Tumor volume Day 16,NCI-H3122 cells; [4],61 mm^3
same,NCI-H3122 Tumor volume Day 0,NCI-H3122 cells; [5],116 mm^3
same,NCI-H3122 T/C Day 2,NCI-H3122 cells; [5],72.16%
same,NCI-H3122 Tumor volume Day 2,NCI-H3122 cells; [5],101 mm^3
same,NCI-H3122 T/C Day 4,NCI-H3122 cells; [5],29.76%
same,NCI-H3122 Tumor volume Day 4,NCI-H3122 cells; [5],54 mm^3
same,NCI-H3122 T/C Day 6,NCI-H3122 cells; [5],19.38%
same,NCI-H3122 Tumor volume Day 6,NCI-H3122 cells; [5],47 mm^3
same,NCI-H3122 T/C Day 9,NCI-H3122 cells; [5],8.54%
same,NCI-H3122 Tumor volume Day 9,NCI-H3122 cells; [5],33 mm^3
same,NCI-H3122 T/C Day 11,NCI-H3122 cells; [5],7.2%
same,NCI-H3122 Tumor volume Day 11,NCI-H3122 cells; [5],34 mm^3
same,NCI-H3122 T/C Day 13,NCI-H3122 cells; [5],5.28%
same,NCI-H3122 Tumor volume Day 13,NCI-H3122 cells; [5],32 mm^3
same,NCI-H3122 T/C Day 16,NCI-H3122 cells; [5],3.6%
same,NCI-H3122 Tumor volume Day 16,NCI-H3122 cells; [5],28 mm^3
same,Mortality Female,[1]; 25 mg/kg single dose,0
same,Mortality Male,[1]; 25 mg/kg single dose,0
same,Mortality/total number of animals,[1]; 25 mg/kg single dose,0/10
same,Mortality Female,[1]; 75 mg/kg single dose,0
same,Mortality Male,[1]; 75 mg/kg single dose,0
same,Mortality/total number of animals,[1]; 75 mg/kg single dose,0/10
same,Mortality Female,[1]; 100 mg/kg single dose,0
same,Mortality Male,[1]; 100 mg/kg single dose,0
same,Mortality/total number of animals,[1]; 100 mg/kg single dose,0/10
same,Mortality Female,[1]; 125 mg/kg single dose,0
same,Mortality Male,[1]; 125 mg/kg single dose,0
same,Mortality/total number of animals,[1]; 125 mg/kg single dose,0/10
same,Mortality Female,[1]; 150 mg/kg single dose,0
same,Mortality Male,[1]; 150 mg/kg single dose,1
same,Mortality/total number of animals,[1]; 150 mg/kg single dose,1/10
same,Mortality Female,[1]; 200 mg/kg single dose,0
same,Mortality Male,[1]; 200 mg/kg single dose,0
same,Mortality/total number of animals,[1]; 200 mg/kg single dose,0/10
same,MTD at 14 days,"[1]; both sexes, rat, in vivo, po, SD rats, single orally intragastric administration, read-out: Maximum Tolerated Dose (MTD)",125 mg/kg
same,NCI-H1975 EGFR DTC(C797S/T790M/Del19) Tumor volume Day 0,[2]; [4],110 mm^3
same,NCI-H1975 EGFR DTC(C797S/T790M/Del19) T/C Day 2,[2]; [4],75.84%
same,NCI-H1975 EGFR DTC(C797S/T790M/Del19) Tumor volume Day 2,[2]; [4],147 mm^3
same,NCI-H1975 EGFR DTC(C797S/T790M/Del19) T/C Day 4,[2]; [4],66.68%
same,NCI-H1975 EGFR DTC(C797S/T790M/Del19) Tumor volume Day 4,[2]; [4],235 mm^3
same,NCI-H1975 EGFR DTC(C797S/T790M/Del19) T/C Day 6,[2]; [4],56.63%
same,NCI-H1975 EGFR DTC(C797S/T790M/Del19) Tumor volume Day 6,[2]; [4],321 mm^3
same,NCI-H1975 EGFR DTC(C797S/T790M/Del19) T/C Day 9,[2]; [4],43.36%
same,NCI-H1975 EGFR DTC(C797S/T790M/Del19) Tumor volume Day 9,[2]; [4],480 mm^3
same,NCI-H1975 EGFR DTC(C797S/T790M/Del19) T/C Day 11,[2]; [4],40.68%
same,NCI-H1975 EGFR DTC(C797S/T790M/Del19) Tumor volume Day 11,[2]; [4],583 mm^3
same,NCI-H1975 EGFR DTC(C797S/T790M/Del19) T/C Day 13,[2]; [4],40.09%
same,NCI-H1975 EGFR DTC(C797S/T790M/Del19) Tumor volume Day 13,[2]; [4],720 mm^3
same,NCI-H1975 EGFR DTC(C797S/T790M/Del19) T/C Day 16,[2]; [4],37.95%
same,NCI-H1975 EGFR DTC(C797S/T790M/Del19) Tumor volume Day 16,[2]; [4],1065 mm^3
same,NCI-H1975 EGFR DTC(C797S/T790M/Del19) Tumor volume Day 0,[2]; [5],113 mm^3
same,NCI-H1975 EGFR DTC(C797S/T790M/Del19) T/C Day 2,[2]; [5],67.13%
same,NCI-H1975 EGFR DTC(C797S/T790M/Del19) Tumor volume Day 2,[2]; [5],133 mm^3
same,NCI-H1975 EGFR DTC(C797S/T790M/Del19) T/C Day 4,[2]; [5],50.41%
same,NCI-H1975 EGFR DTC(C797S/T790M/Del19) Tumor volume Day 4,[2]; [5],177 mm^3
same,NCI-H1975 EGFR DTC(C797S/T790M/Del19) T/C Day 6,[2]; [5],39.48%
same,NCI-H1975 EGFR DTC(C797S/T790M/Del19) Tumor volume Day 6,[2]; [5],217 mm^3
same,NCI-H1975 EGFR DTC(C797S/T790M/Del19) T/C Day 9,[2]; [5],24.87%
same,NCI-H1975 EGFR DTC(C797S/T790M/Del19) Tumor volume Day 9,[2]; [5],269 mm^3
same,NCI-H1975 EGFR DTC(C797S/T790M/Del19) T/C Day 11,[2]; [5],22.07%
same,NCI-H1975 EGFR DTC(C797S/T790M/Del19) Tumor volume Day 11,[2]; [5],308 mm^3
same,NCI-H1975 EGFR DTC(C797S/T790M/Del19) T/C Day 13,[2]; [5],18.98%
same,NCI-H1975 EGFR DTC(C797S/T790M/Del19) Tumor volume Day 13,[2]; [5],327 mm^3
same,NCI-H1975 EGFR DTC(C797S/T790M/Del19) T/C Day 16,[2]; [5],14.36%
same,NCI-H1975 EGFR DTC(C797S/T790M/Del19) Tumor volume Day 16,[2]; [5],385 mm^3
same,Tumor volume Day 0,[3]; [6],109 mm^3
same,Relative tumor proliferation rate T/C Day 3,[3]; [6],59.22%
same,Tumor volume Day 3,[3]; [6],87 mm^3
same,Relative tumor proliferation rate T/C Day 5,[3]; [6],34.07%
same,Tumor volume Day 5,[3]; [6],62 mm^3
same,Relative tumor proliferation rate T/C Day 7,[3]; [6],10.38%
same,Tumor volume Day 7,[3]; [6],41 mm^3
same,Relative tumor proliferation rate T/C Day 10,[3]; [6],5.06%
same,Tumor volume Day 10,[3]; [6],31 mm^3
same,Relative tumor proliferation rate T/C Day 12,[3]; [6],3.12%
same,Tumor volume Day 12,[3]; [6],27 mm^3
same,Tumor volume Day 14,[3]; [6],41 mm^3
same,Tumor volume Day 0,[3]; [7],109 mm^3
same,Relative tumor proliferation rate T/C Day 3,[3]; [7],44.97%
same,Tumor volume Day 3,[3]; [7],67 mm^3
same,Relative tumor proliferation rate T/C Day 5,[3]; [7],24.07%
same,Tumor volume Day 5,[3]; [7],44 mm^3
same,Relative tumor proliferation rate T/C Day 7,[3]; [7],7.97%
same,Tumor volume Day 7,[3]; [7],32 mm^3
same,Relative tumor proliferation rate T/C Day 10,[3]; [7],3.62%
same,Tumor volume Day 10,[3]; [7],22 mm^3
same,Relative tumor proliferation rate T/C Day 12,[3]; [7],1.91%
same,Tumor volume Day 12,[3]; [7],17 mm^3
same,Tumor volume Day 14,[3]; [7],12 mm^3
